Assay results from US4795751A, “5-substituted-6,8-difluoroquinolines useful as antibacterial agents” (Dainippon Pharmaceutical Co., Ltd., priority 1985, dated 1989).
In brackets after ≈: the same amount, converted by molar mass.

Tests used:
[1] = tested on: Al. faecalis P-7001; assay: In vitro antibacterial activity, twofold agar-dilution method; type: cell-based; conditions: Alcaligenes faecalis, P7001; Al. faecalis P-7001 (Gram -); Mueller-Hinton agar, 20 h, 37° C.; calculated for free base; read-out: minimum inhibitory concentration (MIC)
Procedure: (§1) The numbers in the table show minimum inhibitory concentrations (MIC) (μg/ml), calculated for free base. The minimum inhibitory concentration was determined by the twofold agar-dilution method, which was recommended by Japan Society of Chemotherapy (Chemotherapy, 29(1), 76(1981)), using Muller-Hinton agar. One loopful of an overnight culture of test organisms in Mueller-Hinton broth was inoculated onto 10-ml drug-containing agar layers in petri dishes. Bacterial inocula contained approximately 10^6 colonyl-formingunits. Bacterial growth was observed after 20-hour incubation at 37° C. The MIC was defined as the lowest drug concentration which prevented visible bacterial growth.

[2] = tested on: S. aureus 209P JC-1; assay: as above; type: cell-based; conditions: Staphylococcus aureus; S. aureus 209P JC-1 (Gram +); Mueller-Hinton agar, 20 h, 37° C.; calculated for free base; read-out: minimum inhibitory concentration (MIC)
Procedure: as §1

[3] = tested on: S. aureus No. 50774; assay: as above; type: cell-based; conditions: Staphylococcus aureus; S. aureus No. 50774 (Gram +); Mueller-Hinton agar, 20 h, 37° C.; calculated for free base; read-out: minimum inhibitory concentration (MIC)
Procedure: as §1

[4] = tested on: S. epidermidis No. 8; assay: as above; type: cell-based; conditions: Staphylococcus epidermidis; S. epidermidis No. 8 (Gram +); Mueller-Hinton agar, 20 h, 37° C.; calculated for free base; read-out: minimum inhibitory concentration (MIC)
Procedure: as §1

[5] = tested on: M. bovis P-7101; assay: microbe, parasite or virus in culture; type: cell-based; conditions: Mycobacterium tuberculosis variant bovis, P7101, 20 h, read-out: minimum inhibitory concentration (MIC)
[6] = tested on: Staphylococcus aureus 50774; assay: In vivo efficacy against systemic infections in mice; parameters: species or system Staphylococcus aureus; male mice (ddY-S); conditions: Staphylococcus aureus, 50774, 336 h, oral, intravenous infection 5×10^8 cells, twice, immediately and 6 h after infection, 14 days, calculated for free base, read-out: median effective dose (ED50)
Procedure: (§2) Compounds were each dissolved in deionized water. Each of the solutions was orally administered to mice infected with each of the test organisms under the conditions shown hereinbelow, and the median effective dose (ED50) was calculated by probit analysis. The numerals in the table show ED50 (mg/kg) value, calculated for free base.
(§3) Mice: Male mice (ddY-S) weighing about 20 g
Staphylococcus aureus 50774
Intravenous infection with 5×10^8 cells per mouse suspended in saline.
(§4) Four times, immediately, 6, 24 and 30 hours after infection in case of Streptococcus pneumoniae 1 Neufeld. Twice, immediately and 6 hours after infection in case of other organisms.
(§5) For 14 days in case of Staphylococcus aureus 50774 and Streptocuccus pneumoniae 1 Neufeld. For 7 days in case of other organisms.

[7] = tested on: Streptococcus pneumoniae 1 Neufeld; assay: as above; parameters: species or system Streptococcus pneumoniae; male mice (ddY-S); conditions: 336 h, oral, intraperitoneal infection 3×10^3 cells, four times, immediately, 6, 24 and 30 h after infection, 14 days, calculated for free base, read-out: median effective dose (ED50)
Procedure: as §2, §3
Streptococcus pneumoniae 1 Neufeld
Intraperitoneal infection with 3×10^3 cells per mouse suspended in brain heart infusion broth.
as §4, §5

[8] = tested on: Streptococcus pyogenes A65; assay: as above; parameters: species or system Streptococcus pyogenes; male mice (ddY-S); conditions: A65, 168 h, oral, intraperitoneal infection 3×10^7 cells, twice, immediately and 6 h after infection, 7 days, calculated for free base, read-out: median effective dose (ED50)
Procedure: as §2, §3
Streptococcus pyogenes A65
Intraperitoneal infection with 3×10^7 cells per mouse suspended in brain heart infusion broth.
as §4, §5

[9] = tested on: M. buccale CH-20247; assay: Anti-Mycoplasma activity, twofold agar-dilution method; type: cell-based; conditions: 48 h, Chanock agar, 37° C., 2 days anaerobically, calculated for free base, read-out: minimum inhibitory concentration (MIC)
Procedure: (§6) The numbers in the table show minimum inhibitory concentrations (MIC) (μg/ml), calculated for free base. The minimum inhibitory concentration was determined by the twofold agar-dilution method using Chanock agar. Three μl of a culture of test organisms in Chanock broth was inoculated onto 10-ml drug-containing agar layers in petri dishes. Growth of Mycoplasma was observed after incubation at 37° C. under the conditions shown hereinbelow. The MIC was defined as the lowest drug concentration which prevented growth of Mycoplasma microscopically.

[10] = tested on: M. fermentans PG-18; assay: as above; type: cell-based; conditions: Mycoplasmopsis fermentans, PG18, 48 h, Chanock agar, 37° C., 2 days anaerobically, calculated for free base, read-out: minimum inhibitory concentration (MIC)
Procedure: as §6

[11] = tested on: M. hominis PG-21; assay: as above; type: cell-based; conditions: Metamycoplasma hominis, PG21, 48 h, Chanock agar, 37° C., 2 days anaerobically, calculated for free base, read-out: minimum inhibitory concentration (MIC)
Procedure: as §6

[12] = tested on: M. hyorhinis BST-7; assay: as above; type: cell-based; conditions: Mesomycoplasma hyorhinis, BST7, 72 h, Chanock agar, 37° C., 3 days aerobically, calculated for free base, read-out: minimum inhibitory concentration (MIC)
Procedure: as §6

[13] = tested on: M. orale CH-19299; assay: as above; type: cell-based; conditions: 48 h, Chanock agar, 37° C., 2 days anaerobically, calculated for free base, read-out: minimum inhibitory concentration (MIC)
Procedure: as §6

[14] = tested on: M. pneumoniae Mac; assay: as above; type: cell-based; conditions: Mycoplasmoides pneumoniae, 168 h, Chanock agar, 37° C., 7 days aerobically, calculated for free base, read-out: minimum inhibitory concentration (MIC)
Procedure: as §6

[15] = tested on: M. salivarium; assay: as above; type: cell-based; conditions: 48 h, read-out: minimum inhibitory concentration (MIC)
Procedure: as §6

[16] = tested on: A. laidlawii PG-8; assay: as above; type: cell-based; conditions: Acholeplasma laidlawii, PG8, 48 h, Chanock agar, 37° C., 2 days aerobically, calculated for free base, read-out: minimum inhibitory concentration (MIC)
Procedure: as §6
(§7) Mycoplasma arginini and Acholeplasma laidlawii

[17] = tested on: M. arginini G-230; assay: as above; type: cell-based; conditions: Mycoplasmopsis arginini, G230, 48 h, Chanock agar, 37° C., 2 days aerobically, calculated for free base, read-out: minimum inhibitory concentration (MIC)
Procedure: as §6, §7

[18] = Acute oral toxicity in mice; conditions: mouse, in vivo, po
Procedure: (§8) A solution containing each of compounds 1, 2 and 3 of this invention in various concentrations was orally given to male mice (ddY) at a dose of 0.1 ml per 10 g of body weight. The number of dead mice was counted after 7 days, and the value of median lethal dose (LD50, mg/kg) was calculated in accordance with the Behrens-Kaerber method.

[19] = tested on: male mice (ddY); assay: Acute oral toxicity in mice; conditions: conclusion in words from Table 5
Procedure: as §8

In the case of `CC1CN(c2c(F)c(N)c3c(=O)c(C(=O)O)cn(C4CC4)c3c2F)CCN1` (stereo not shown) [Compound 1, 5-Amino-1-cyclopropyl-6,8-difluoro-7-(3-methyl-1-piperazinyl)-1,4-dihydro-4-oxoquinoline-3-carboxylic acid], the MIC [1] is reported as 0.1 µg/mL (≈ 0.264 µM), the MIC [2] is reported as 0.025 µg/mL (≈ 0.0661 µM) and the MIC [3] is reported as 0.0125 µg/mL (≈ 0.033 µM). For the same compound, the MIC [4] was 0.025 µg/mL (≈ 0.0661 µM), the MIC [5] was 0.2 µg/mL (≈ 0.529 µM) and the ED50 [6] was 1.35 mg/kg. It also gave an ED50 [7] of 10.9 mg/kg, an ED50 [8] of 5.26 mg/kg and an MIC [9] of 0.0125 µg/mL (≈ 0.033 µM). For the same compound, the MIC [10] was 0.0063 µg/mL (≈ 0.0166 µM), the MIC [11] was 0.05 µg/mL (≈ 0.132 µM) and the MIC [12] was 0.2 µg/mL (≈ 0.529 µM). For the same compound, the MIC [13] was 0.2 µg/mL (≈ 0.529 µM), the MIC [14] was 0.025 µg/mL (≈ 0.0661 µM) and the MIC [15] was 0.2 µg/mL (≈ 0.529 µM). It also gave an MIC [16] of 0.1 µg/mL (≈ 0.264 µM), an MIC [17] of 0.1 µg/mL (≈ 0.264 µM) and an LD50 at 168 h [18] of over 2000 mg/kg. For the same compound, the oral toxicity [19] was “low oral toxicity”.
